Our source for the IC50 values is patent publication US20260256931A1, “CD276 ANTIBODY AND METHODS OF USE THEREOF” (priority 2023, published 2026).

Where a SMILES comes first, the peptide text is derived from it. [ ]: non-standard residue; d: D form. Dolaproine = CO[C@@H]([C@@H]1CCCN1)[C@@H](C)C(=O)O; Dil = CC[C@H](C)[C@H](NC)[C@@H](CC(=O)O)OC; NMeV = CN[C@H](C(=O)O)C(C)C

Usually IC50 stands for the concentration that inhibits the measured activity by half. Read a low IC50 as greater potency.

What all share (type): cell-based
For one assay, the system named is 4T1. The assay can be described thus: In vitro cytotoxicity assay (MTT), 4T1. Conditions: Mus musculus, 4T1, 120 h. On the procedure:
(§1) The human and mouse TNBC cells were seeded in 96-well plates with a density of 10,000 cells/well for MDA-MB-468, 1,000 cells/well for MDA-MB-231 and 500 cells/well for 4T1. The free MMAF, mAb-MMAF and mAb-MMAF/IMQ were added into each well to reach the final dosages of 0-300 or 400 nM. Higher concentrations, i.e. 0-20 μM, of free IMQ and mAb-IMQ, were tested. The treated cells were incubated at 37° C. and 5% CO2 for five days and the cell viability was analyzed using MTT Cell Proliferation Assay kit.

The next assay relates to MDA-MB-468. The assay can be described thus: In vitro cytotoxicity assay (MTT), MDA-MB-468. The note with it: Homo sapiens, 120 h, MDA-MB-468, five days. On the procedure:
as §1

The next assay concerns MDA-MB-231. Put plainly: In vitro cytotoxicity assay (MTT), MDA-MB-231. Conditions: Homo sapiens, MDA-MB-231, 120 h. As for the experimental part:
as §1

Consider `CC[C@H](C)[C@@H]([C@@H](CC(=O)N1CCC[C@H]1[C@H](OC)[C@@H](C)C(=O)N[C@@H](Cc1ccccc1)C(=O)O)OC)N(C)C(=O)[C@@H](NC(=O)[C@@H](NC)C(C)C)C(C)C` [MMAF, Monomethyl auristatin F] (H-[NMeV]V[Dil][Dolaproine]F-OH), for which the concentration for half-maximal inhibition (IC50) with 4T1 turned out to be 104 nM; in the assay with MDA-MB-468, 143 nM; in the assay with MDA-MB-231, 151 nM.
